Patent US20220378747A1, “TOPICAL COMPOSITION FOR TREATING SKIN WOUNDS” (priority 2021, published 2022)

What was measured:
Format in all cases: physicochemical
[1] = 0.1M Zinc Gluconate and 0.1M Amino Acid Solutions: pH and precipitation on adjusting pH to 7.0; conditions: for pH: 0.1M zinc gluconate and 0.1M amino acid solution, before adjustment; for Observations: 0.1M zinc gluconate and 0.1M amino acid, pH adjusted to 7.0 with NaOH
Description: There are seven standard amino acids with uncharged polar R groups which can hydrogen-bond with water. […] The basic amino acids, in which the R groups have a net positive charge at pH 7.0, all have six carbon atoms. […] Histidine is the only amino acid having buffering capacity near pH 7.0 with a pK′ of the R group near 7.0. All of the basic amino acids as shown in the following table are suitable for use in the present invention: […]

[2] = pH of 2M amino acid and 1M zinc gluconate solution in water (Example 11); conditions: 2M amino acid and 1M zinc gluconate dissolved in water, before neutralization
Method: A formulation in powder form containing zinc and lysine which when dissolved in water forms a neutral solution was prepared as follows: Two M lysine and 1M zinc gluconate was dissolved in water to form a solution having a pH 7.4 and was neutralized to pH 7 with HCl. After the zinc and amino solution was neutralized, it was frozen immediately in liquid nitrogen. The frozen solution was then lyophilized for 24 hours to remove water.

pH of Zinc Solutions = assay: pH of Zinc Solutions
Description: Other minerals which may be administered in the subject form include calcium, iron, magnesium, manganese and the like.

acidity of zinc gluconate neutralized by adding the amino acid and adjusting the pH to 7.0 [1] | pH [1] | Observations [1] | Compound | further results
can be neutralized | 5.1 | – | CC[C@H](C)[C@H](N)C(=O)O [Isoleucine] | –
– | 4.9 | precipitates | N[C@@H](Cc1ccccc1)C(=O)O [Phenylalanine] | –
can be neutralized | – | does not precipitate | N[C@@H](CO)C(=O)O [Serine] | –
can be neutralized | – | does not precipitate | C[C@@H](O)[C@H](N)C(=O)O [Threonine] | –
can be neutralized | 5.1 | – | CC(C)[C@H](N)C(=O)O [Valine] | –

Second part, the compound before the results:

Compound | acidity of zinc gluconate neutralized by adding the amino acid and adjusting the pH to 7.0 [1] | pH [1] | Observations [1] | further results
C[C@H](N)C(=O)O [Alanine] | can be neutralized | 5.1 | – | –
NC(=O)C[C@H](N)C(=O)O [Asparagine] | can be neutralized | 4.8 | – | –
N[C@@H](CS)C(=O)O [Cysteine] | cannot be made | – | precipitates | –
NC(=O)CC[C@H](N)C(=O)O [Glutamine] | can be neutralized | 5.0 | – | –
N[C@@H](Cc1c[nH]cn1)C(=O)O [Histidine] | can be neutralized | – | – | pH of solution [2]: 5.5
CC(C)C[C@H](N)C(=O)O [Leucine] | – | 5.0 | pH adjusted to 7.0 with NaOH precipitates | –
NCCCC[C@H](N)C(=O)O [Lysine] | can be neutralized | 7.4 | – | pH of solution [2]: 7.4
CSCC[C@H](N)C(=O)O [Methionine] | – | – | pH adjusted to 7.0 with NaOH precipitates | –
N[C@@H](Cc1c[nH]c2ccccc12)C(=O)O [Tryptophan] | – | – | Not soluble | –
CC(=O)[O-].CC(=O)[O-].[Zn+2] [Zinc acetate] | – | – | – | pH (pH of Zinc Solutions; 0.1M solution): 6.7; pH (pH of Zinc Solutions; 0.2M solution): 6.6
[Cl-].[Cl-].[Zn+2] [Zinc chloride] | – | – | – | pH (pH of Zinc Solutions; 0.1M solution): 6.4; pH (pH of Zinc Solutions; 0.2M solution): 6.2
O=S(=O)([O-])[O-].[Zn+2] [Zinc sulfate] | – | – | – | pH (pH of Zinc Solutions; 0.1M solution): 5.7; pH (pH of Zinc Solutions; 0.2M solution): 5.45
Zinc gluconate | – | – | – | pH (pH of Zinc Solutions; 0.1M solution): 5.85; pH (pH of Zinc Solutions; 0.2M solution): 5.65; neutralization with sodium hydroxide ([1]; zinc salt alone, without amino acid): cannot be neutralized with sodium hydroxide without precipitating the mixture
